Test results reported in patent US20070197452A1, “Treatment of amyloid-related diseases” (priority 2006, published 2007).
Entries after “also recorded” stand apart in the source; their conditions may differ.

Assays:
TgCRND8 mice [1] = assay: Accelerating rotarod, sensorimotor function; format: in vivo, mouse; details: treated vs untreated TgCRND8 mice and non-Tg littermates
Protocol: Behavioural tests: Morris Water Maze testing was performed as previously described. After non-spatial pre-training, mice underwent place discrimination training for 5 days with 4-trials per day, followed by a cued visible platform to rule out general motivational, learning deficits and motor problems, and a probe trial to evaluate memory. […] Open field test for motor activity was preformed as described previously. Duration of walking, pausing and grooming were analyzed as indices of spontaneous locomotor activity. Sensorimotor function was examined with an Economex™ accelerating rotarod (Columbus Instruments, Columbus, Ohio), as described elsewhere. The rod was set to accelerate at a rate of 0.2 r.p.m./s, from an initial, constant speed of 5 r.p.m. Latency to fall was recorded in four daily trials, conducted at 30 min intervals. All mice were trained for seven days before testing. The test day performance score for each animal was obtained by summing its latency to fall over the four trials
Behavioral tests. Morris water maze testing was carried out as previously described. […] Sensorimotor function was assessed with an Economex accelerating rotarod (Columbus Instruments) as previously described.
Duration of walking, pausing and grooming were analyzed as indices of spontaneous locomotor activity. […] Latency to fall was recorded in four daily trials, conducted at 30 min intervals. […]

Aβ oligomeric species = molecular target: T1, Aβ oligomeric species (Homo sapiens, UniProt P05067); assay: Western blot of soluble brain fractions for Aβ species; format: in vivo, mouse
T1 construct: from tissue; host or cells: soluble fraction of hemi-brain homogenates of TgCRND8 transgenic mice
T1 sequence (P05067 672-713 limits assumed): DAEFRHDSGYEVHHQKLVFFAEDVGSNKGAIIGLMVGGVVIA
Protocol: Soluble Aβ oligomer analyses. Levels of soluble Aβ oligomers were measured by a dot-blot assay with oligomer-specific antibodies on all brain homogenates from all experimental groups. Soluble oligomers were also examined by western blot analyses.
Samples were centrifuged (100,000 g, 20 min, 4° C.), supernatant collected and frozen at −80° C. until use. Proteins (20 μg) were separated by SDS-PAGE on a 10-20% Tris-Tricine gel, transferred to a nitrocellulose membrane, blocked for 1 h at room temp with 8% non-fat milk and incubated overnight with anti-Aβ (6E10; 1:2,500). Membranes were rinsed with TBST, exposed to anti-mouse (1:5,000) for 1 h at room temperature, washed with TBST (6×10 min) and developed using enhanced chemiluminescence. Blots were stripped and re-probed with either anti-APP (22C11; 1:1,000) or anti-GAPDH (1:10,000) to confirm equal protein loading.

[2] = system: long term potentiation (LTP) in mouse hippocampal slices; assay: Long term potentiation in hippocampal slices with 7PA2 conditioned medium; format: cell-based
Protocol: Long Term Potentiation. Field potentials were recorded in CA1 of mouse hippocampus by standard procedures. Swiss Webster mice between the ages of P16 and P26 were anesthetized with isoflurane. […] The hippocampus from each hemisphere was isolated and 350 μm coronal sections were made. […] Once placed in the chamber, slices were continuously perfused by a closed loop containing 15 ml of ACSF to conserve the oligomeric Aβ. […] A bipolar stimulating electrode (World Precision Inst.) was placed in the Schaffer collaterals to deliver baseline stimuli and tetani. A borosilicate glass recording electrode (2-4 MΩ) containing ACSF was positioned approximately 75-200 μm from the stimulating electrode. […] Test stimuli were delivered at 0.05 Hz. To induce LTP, 4 tetani (100 Hz for 1 second) were delivered 5 minutes apart. Field potential responses were amplified 10× using an Axopatch 200B. The data was sampled at 10 kHz and filtered at 2 kHz. Traces were analyzed using pClamp 9.2. The slope of the field potential was estimated using approximately 10-60% of the total response.

[3] = wild-type mice
Protocol: Mice. […] A cohort of animals (n=10 mice per treatment arm) entered the study at five months of age, and outcomes were then analyzed after one month of treatment. The body weight, coat characteristics and in cage behaviour were monitored. Mannitol was used as a negative control for potential alterations in caloric intake. All experiments were performed according to the Canadian Council on Animal Care guidelines.
Mice. […] Mannitol was used as a negative control for potential alterations in caloric intake.

TgCRND8 mice [4] = assay: Morris water maze spatial reference memory test; format: in vivo, mouse; details: separate cohort; 28 days of treatment from 5 months of age; data not shown
Aβ42 = molecular target: T2, Aβ42 (Homo sapiens, UniProt P05067); assay: Plasma Aβ42 level; format: in vivo, mouse; details: TgCRND8 mice; 28 days of therapy at five months of age; untreated 1144±76 pg/ml
T2 construct: analyzed for Aβ40 and Aβ42 using commercially available kits; from tissue; host or cells: hemi-brain homogenates and plasma of TgCRND8 transgenic mice
T2 sequence (P05067 672-713 limits assumed): as above
Protocol: Plasma and Cerebral Aβ Content. Hemi-brain samples were homogenized in a buffered sucrose solution, followed by either 0.4% diethylamine/100 mM NaCl for soluble Aβ levels or cold formic acid for the isolation of total Aβ. After neutralization, the samples were diluted and analyzed for Aβ40 and Aβ42 using commercially available kits (BIOSOURCE International). Each hemisphere was analyzed in triplicate and the mean values±SEM reported. Western blot analyses were performed on all fractions using urea gels for Aβ species analyses. Aβ was detected using 6E10 (BIOSOURCE International) and Enhanced Chemiluminenscence (Amersham).
Plasma and cerebral Aβ content. Hemi-brain samples were homogenized in a buffered sucrose solution, followed by either a mixture of 0.4% diethylamine and 100 mM NaCl for soluble Aβ levels or cold formic acid for the isolation of total Aβ. After neutralization, samples were diluted and analyzed for Aβ40 and Aβ42 using commercially available kits (Biosource International). Each hemisphere was analyzed in triplicate and the mean±s.e.m. was reported. Western blot analyses were carried out on all fractions using urea gels for Aβ species analyses. Aβ was detected using 6E10 (Biosource International).

[5] = 4-month-old TgCRND8 mice, treated (n=4) vs untreated (n=4)
[6] = 4-month-old treated vs untreated TgCRND8 mice, densitometry

| Compound | rotarod sensorimotor function (TgCRND8 mice [1]) | high-molecular-weight Aβ species (Aβ oligomeric species; [5]) | smaller Aβ oligomers (Aβ oligomeric species; [5]) | increase in low-molecular-weight trimeric Aβ species (Aβ oligomeric species; [6]) | reduction of high-molecular-weight Aβ oligomeric species (Aβ oligomeric species; [6]) | synaptic response in the absence of a potentiating tetanus ([2]; baseline transmission, data not shown) | direct effect on LTP ([2]; compound-treated medium from plain CHO cells) | survival, weight, fur condition, cage behavior [3] | probe trial, % time in target quadrant, compared with non-Tg littermates (TgCRND8 mice [4]) | Plasma Aβ42 levels (Aβ42) |
| --- | --- | --- | --- | --- | --- | --- | --- | --- | --- | --- |
| OC1C(O)C(O)C(O)C(O)C1O (stereo not shown) [scyllo-cyclohexanehexol, 1,3,5/2,4,6-(scyllo-) cyclohexanehexol] | no difference; also recorded: indistinguishable | decrease in high-molecular-weight Aβ species | increase in smaller oligomers | 282±5% | 25±4.5% | did not change synaptic response | no direct effect on LTP | no effect on survival, weight, fur condition or cage behavior | not statistically different from non-Tg littermates | – |
| OC1C(O)C(O)C(O)C(O)C1O (stereo not drawn) [epi-cyclohexanehexol, 1,2,3,4,5/6-(epi-) cyclohexanehexol, reference compound] | – | – | – | – | – | – | – | – | – | 1079 ± 79 pg/mL |
